Here are results for three compounds from ChEMBL document CHEMBL4706685 (J Med Chem, 2021).

By logP is commonly meant the decadic logarithm of the partition coefficient of the neutral form, usually between octanol and water. By solubility is commonly meant the dissolved amount per volume that the medium holds. A higher solubility goes with much dissolved substance.

For one series, the system named is CYP1A2. As to the kind of experiment: Induction of CYP1A2 mRNA expression in human hepatocytes up to 30 uM relative to positive control. The following applies: read-out: Activity. Format: ADME, cell-based, Hepatocyte.
A further series has as its system CYP3A4. The experiment in a line: Induction of CYP3A4 mRNA expression in human hepatocytes up to 30 uM relative to positive control. The following applies: read-out: Activity. Format: ADME, cell-based, Hepatocyte.
A further series has as its system CYP2B6. As to the kind of experiment: Induction of CYP2B6 mRNA expression in human hepatocytes up to 30 uM relative to positive control. It counts as ADME, cell-based, Hepatocyte. The following applies: read-out: Activity.
Series [1] can be described thus: Lipophilicity, logP of compound by HPLC analysis. It counts as physicochemical.
Series [2] is described as follows: Drug excretion in male Sprague-Dawley rat urine/feces assessed as drug recovery at 3 mg/kg, po administered as single dose using [14C]-EC5026 measured through 168 hrs postdose. The following applies: in vivo.
Series [3] in a line: Terminal half life in human at 8 to 24 mg. Format: ADME. The following applies: dose 8-24 mg, read-out: beta t1/2 (converted).
Series [4] is described as follows: Drug excretion in female Sprague-Dawley rat urine/feces assessed as drug recovery at […], po administered as single dose using [14C]-EC5026 measured through 168 hrs postdose. The following applies: in vivo.
The nature of series [5]: Solubility in 0.1M sodium phosphate buffer at pH 7.4. It counts as physicochemical.

Values after ≈ are worked out from the molar mass of the structure shown. Where only a bound is given, the exact number is not on record here.

For the compound `CC[C@H](C)C(=O)N1CCC(NC(=O)Nc2ccc(OC(F)(F)F)c(F)c2)CC1`, the Emax with CYP1A2, in the series on CYP3A4 and with CYP2B6 was less than 20% throughout. Further, the log partition coefficient (logP) in series [1] (read-out: logP) is 6. The Drug recovery in series [2] and in series [4] was 96.5% throughout. Besides, the half-life in series [3] was 42 h.
Take `O=C(Nc1ccc(OC(F)(F)F)c(F)c1)NC1CCN(C(=O)C2CC2)CC1`: in series [1] (read-out: logP), the log partition coefficient (logP) came out at 4.2.
Compound `CC[C@H](C)C(=O)N1CCC(CC(=O)Nc2ccc(OC(F)(F)F)c(F)c2)CC1` showed a solubility in series [5] of 0.40441 mg/mL (≈ 1000 µM). The compound further yielded a log partition coefficient (logP) in series [1] of 3.2.
